According to US8158635B2, “Solid forms comprising 4-[9-(tetrahydro-furan-3-yl)-8-(2,4,6-trifluoro-phenylamino)-9H-purin-2-ylamino]-cyclohexan-1-ol, compositions thereof, and uses therewith” (Signal Pharmaceuticals, LLC, priority 2006, dated 2012):
Values after ≈ are worked out from the molar mass of the structure shown. Where two headings read alike, the source gives them in different places.

How the values were obtained:
Assay type in all cases: physicochemical
[1] = Approximate solubilities of solid forms in solvents; settings: thermodynamic from solid, about 25° C., at least 24 hours, read-out: Approximate Solubility (mg/mL) of Form A of the Free Base of Compound I
Procedure: A weighed sample comprising either the free base or the HCl salt of Compound I was treated with 2 mL of a solvent (either HPLC or reagent grade). The resulting mixture was agitated for at least 24 hours at about 25° C. When all of the solids were dissolved by visual inspection, the estimated solubility was calculated. The solubility was estimated from these experiments based on the total volume of solvent used to give a complete solution. The actual solubility may be greater than those calculated due to the use of a large amount of solvent or a slow rate of dissolution. A known volume of filtrate was evaporated to dryness and the weight of the residue was measured.

[2] = Compression testing, form checked by XRPD; settings: about 2000-psi pressure for about 1 min
Procedure: (§1) In certain embodiments, Form A of the free base of Compound I is stable during drying at temperatures up to about 40-45° C. In certain embodiments, the crystallization and/or recrystallization of Form A of the free base of Compound I provides an effective means of purification by removing or reducing the levels of chemical impurities (such as, e.g., one or more of the chemical compounds provided in FIG. 14) in the resulting material. In certain embodiments, Form A of the free base of Compound I is substantially pure. […] In certain embodiments, Form A of the free base of Compound I is stable upon compression.
X-ray powder diffraction (XRPD) measurements were performed in accordance with United States Pharmacopeia (USP) monograph <941> entitled “X-ray Diffraction” (See, e.g., The United States Pharmacopeia, The National Formulary, 2003, The Unites States Pharmacopeial Convention, Inc., Rockville, Md., 2002, which is herein incorporated by reference in its entirety). A Thermo ARL X'TRA X-ray powder diffractometer (Thermo Electron Corp., Waltham, Mass.), equipped with Nickel-filtered Cu Kα radiation at 1.54 Å, was used for XRPD measurements from about 1.5 °2θ to about 40 °2θ, with a step size of about 0.020°, a count time of about 0.50 seconds per step, and a step scan rate of about 2.40°/min. […] Diffracted radiation was measured using a Peltier-cooled Si (Li) solid-state detector. […]

[3] = Equilibration of solid form in solvent for 4 weeks at 40° C., resulting form by XRPD
Procedure: Equilibration slurry and evaporation experiments were carried out by adding an excess of Compound I free base or HCl salt to 2 mL of solvent. […] Upon reaching equilibrium, the saturated supernatant solution was removed and allowed to evaporate slowly in an open vial under nitrogen at 25° C. or 50° C., respectively. The slurry resulting from the equilibration was filtered and air-dried. X-ray powder diffraction (XRPD) measurements were performed in accordance with United States Pharmacopeia (USP) monograph <941> entitled “X-ray Diffraction” (See, e.g., The United States Pharmacopeia, The National Formulary, 2003, The Unites States Pharmacopeial Convention, Inc., Rockville, Md., 2002, which is herein incorporated by reference in its entirety). A Thermo ARL X'TRA X-ray powder diffractometer (Thermo Electron Corp., Waltham, Mass.), equipped with Nickel-filtered Cu Kα radiation at 1.54 Å, was used for XRPD measurements from about 1.5 °2θ to about 40 °2θ, with a step size of about 0.020°, a count time of about 0.50 seconds per step, and a step scan rate of about 2.40°/min. The instrument was equipped with a fine focus X-ray tube. The voltage and amperage were set at 45 kV and 40 mA, respectively. The divergence slits were set at 0.5 mm and 0.2 mm. Diffracted radiation was measured using a Peltier-cooled Si (Li) solid-state detector. Representative XRPD patterns were presented displaying intensity (counts per second) versus position (°2θ). A sintered alumina standard was used to check peak positions. Peak positions may vary from sample to sample by approximately ±0.1 °2θ. Variation in peak position may depend upon multiple factors, including particle size, sample preparation, data collection temperature and parameters. Variation in peak intensity may occur, e.g., as a result of preferred orientation and/or variation in crystal habit.

Stability during drying = settings: temperatures up to about 40-45° C.
Procedure: as §1
Crude 4-[9-(tetrahydro-furan-3-yl)-8-(2,4,6-trifluoro-phenylamino)-9H-purin-2-ylamino]-cyclohexan-1-ol (“Compound I”) (5 g) was dissolved in ethanol (35 ml, 7 vol) at reflux (78-82° C.). Water (75 ml, 15 vol) was added, maintaining the temperature above 75° C. The solution was seeded (0.5-1%) and allowed to cool to ambient temperature (20-25° C.) over 4-6 h. The product was collected by filtration and washed with water (25 ml, 5 vol) then dried (18 h, 40-45° C.) to yield Form A of the free base of Compound I as an off-white crystalline solid. Form A is the imine tautomer of 4-[9-(terahydro-furan-3-yl)-8-(2,4,6-trifluoro-phenylamino)-9H-purin-2-ylamino]-cyclonhexan-1-ol having the structure: […]

## O[C@H]1CC[C@H](Nc2ncc3nc(Nc4c(F)cc(F)cc4F)n([C@H]4CCOC4)c3n2)CC1 (stereo in doubt) [Form A of the Free Base of Compound I, 4-[9-(tetrahydro-furan-3-yl)-8-(2,4,6-trifluoro-phenylamino)-9H-purin-2-ylamino]-cyclohexan-1-ol]
[1]; 2-propanol, 25 °C, organic solvent or mixture, column 1, solvent 2-Propanol
  solubility: 15.7 mg/mL (≈ 34.9 mM)
[1]; 2-propanol, 25 °C, organic solvent or mixture, solvent 2-Propanol
  solubility: 6.39 mg/mL (≈ 14.2 mM)
[1]; absolute ethanol, 25 °C, organic solvent or mixture, column 1, solvent Absolute ethanol
  solubility: 47.1 mg/mL (≈ 105 mM)
[1]; absolute ethanol, 25 °C, organic solvent or mixture, solvent Absolute ethanol
  solubility: > 50 mg/mL
[1]; acetone, 25 °C, organic solvent or mixture, column 1, solvent Acetone
  solubility: 11.6 mg/mL (≈ 25.8 mM)
[1]; acetone, 25 °C, organic solvent or mixture, solvent Acetone
  solubility: 1.14 mg/mL (≈ 2.54 mM)
[1]; acetonitrile, 25 °C, organic solvent or mixture, column 1, solvent Acetonitrile
  solubility: 2.58 mg/mL (≈ 5.75 mM)
[1]; acetonitrile, 25 °C, organic solvent or mixture, solvent Acetonitrile
  solubility: 1.56 mg/mL (≈ 3.48 mM)
[1]; ethanol/water (1/1), 25 °C, aqueous with cosolvent or surfactant or cyclodextrin, column 1, solvent Ethanol/Water (1/1)
  solubility: 11.6 mg/mL (≈ 25.9 mM)
[1]; ethanol/water (1/1), 25 °C, aqueous with cosolvent or surfactant or cyclodextrin, solvent Ethanol/Water (1/1)
  solubility: > 50 mg/mL
[1]; ethyl acetate, 25 °C, organic solvent or mixture, column 1, solvent Ethyl acetate
  solubility: 3.91 mg/mL (≈ 8.72 mM)
[1]; ethyl acetate, 25 °C, organic solvent or mixture, solvent Ethyl acetate
  solubility: 0.02 mg/mL (≈ 0.0446 mM)
[1]; heptane, 25 °C, organic solvent or mixture, column 1, solvent Heptane
  solubility: 0.55 mg/mL (≈ 1.23 mM)
[1]; heptane, 25 °C, organic solvent or mixture, solvent Heptane
  solubility: 0.51 mg/mL (≈ 1.14 mM)
[1]; methanol, 25 °C, organic solvent or mixture, column 1, solvent Methanol
  solubility: > 50 mg/mL
[1]; methanol, 25 °C, organic solvent or mixture, solvent Methanol
  solubility: > 50 mg/mL
[1]; methyl ethyl ketone, 25 °C, organic solvent or mixture, column 1, solvent Methyl ethyl ketone
  solubility: 8.74 mg/mL (≈ 19.5 mM)
[1]; methyl ethyl ketone, 25 °C, organic solvent or mixture, solvent Methyl ethyl ketone
  solubility: 0.68 mg/mL (≈ 1.52 mM)
[1]; methyl t-butyl ether, 25 °C, organic solvent or mixture, column 1, solvent Methyl t-butyl ether
  solubility: 1.1 mg/mL (≈ 2.45 mM)
[1]; methylene chloride, 25 °C, organic solvent or mixture, column 1, solvent Methylene chloride
  solubility: 11.6 mg/mL (≈ 25.8 mM)
[1]; methylene chloride, 25 °C, organic solvent or mixture, solvent Methylene chloride
  solubility: 5 mg/mL (≈ 11.1 mM)
[1]; n-butanol, 25 °C, organic solvent or mixture, column 1, solvent n-Butanol
  solubility: 19.3 mg/mL (≈ 43.1 mM)
[1]; n-butanol, 25 °C, organic solvent or mixture, solvent n-Butanol
  solubility: 7.5 mg/mL (≈ 16.7 mM)
[1]; organic solvent or mixture, solvent Methyl t-butyl ether
  solubility: 0.46 mg/mL (≈ 1.03 mM)
[1]; tetrahydrofuran, 25 °C, organic solvent or mixture, column 1, solvent Tetrahydrofuran
  solubility: > 50 mg/mL
[1]; tetrahydrofuran, 25 °C, organic solvent or mixture, solvent Tetrahydrofuran
  solubility: 2.03 mg/mL (≈ 4.53 mM)
[1]; toluene, 25 °C, organic solvent or mixture, column 1, solvent Toluene
  solubility: 0.36 mg/mL (≈ 0.803 mM)
[1]; toluene, 25 °C, organic solvent or mixture, solvent Toluene
  solubility: 0.04 mg/mL (≈ 0.0892 mM)
[1]; water, 25 °C, water, column 1, solvent Water
  solubility: 0.41 mg/mL (≈ 0.914 mM)
[1]; water, 25 °C, water, solvent Water
  solubility: > 50 mg/mL
[2]
  XRPD pattern after compression testing: substantially unchanged
[3]; Equilibrate Form A in 2-Propanol for 4 weeks at 40° C.
  Resulting Form by XRPD: Compound I Free Base Form A
[3]; Equilibrate Form A in Acetone for 4 weeks at 40° C.
  Resulting Form by XRPD: Compound I Free Base Form A
[3]; Equilibrate Form A in Acetonitrile for 4 weeks at 40° C.
  Resulting Form by XRPD: Compound I Free Base Form A
[3]; Equilibrate Form A in Ethyl acetate for 4 weeks at 40° C.
  Resulting Form by XRPD: Compound I Free Base Form A
[3]; Equilibrate Form A in Heptane for 4 weeks at 40° C.
  Resulting Form by XRPD: Compound I Free Base Form A
[3]; Equilibrate Form A in MTBE for 4 weeks at 40° C.
  Resulting Form by XRPD: Compound I Free Base Form A
[3]; Equilibrate Form A in Toluene for 4 weeks at 40° C.
  Resulting Form by XRPD: Compound I Free Base Form A
[3]; Equilibrate Form A in Water for 4 weeks at 40° C.
  Resulting Form by XRPD: Compound I Free Base Form A
Stability during drying
  stability during drying: stable
